{"source": "patent US12616697B2", "about": "“Methods of treatment with myosin modulator” (MyoKardia, Inc., priority 2020, dated 2026)", "key": {"[1]": {"test_system": "adults with symptomatic oHCM", "assay": "PIONEER-OLE Phase 2 open-label extension study of mavacamten", "type": "in vivo", "method": "All subjects were started on a dose of 5 mg QD.\nTo maximize safety, the starting dose will be 5 mg for all subjects. Subjects will return at Week 4 (±4 days) for a plasma PK sample to measure drug levels and to undergo echocardiography to determine LVOT gradient (at rest, after a Valsalva maneuver, and after exercise) and left ventricular ejection fraction (LVEF).\nAfter Week 6, additional study visits will occur at Week 8 (±7 days), Week 12 (±7 days), and every 12 weeks (±7 days) thereafter. Subjects also will be contacted by phone in between clinic visits, at Week 18 and every 12 weeks thereafter. An end of study (EOS) visit will occur 12 weeks (±7 days) after the last administration of study drug. Visits (including the Screening visit which serves as the baseline) will entail recording vital signs, targeted physical examination, ECGs, safety laboratory tests, N-terminal pro b-type natriuretic peptide (NT-proBNP), adverse events (AEs), New York Heart Association (NYHA) functional class, Kansas City Cardiomyopathy Questionnaire (KCCQ) score, and concomitant medications. At Weeks 4, 8, 24, 36, 48, 60, 72, 96, 120, 144, 156/early termination (ET), and 168/EOS, a predose blood sample for assessment of drug concentration will be obtained. A standard TTE (including but not limited to assessment of LVOT gradient at rest and after Valsalva) will be performed at baseline, at Weeks 4, 8, 12, 24, 36, 48, 72, 96, 120, 144, 156/ET, and 168/EOS. In addition, a stress echocardiogram (with assessment of LVOT gradient post-exercise) will also be performed at baseline, Weeks 4, 48, 72, 156/ET, and 168/EOS.\nThe study endpoints include safety, tolerability, and select measures of efficacy using individualized dosing. Key measurements include LVOT gradient, LVEF, NT-proBNP.\n• 1. Frequency and severity of treatment-emergent AEs and SAEs, • 2. Frequency of cardiovascular (CV) death, • 3. Frequency of sudden death, • 4. Frequency of CV hospitalization, • 5. Frequency of heart failure requiring the initiation of oral loop diuretics or the administration of intravenous loop diuretics, • 6. Frequency of myocardial infarction, • 7. Frequency of ventricular arrhythmias (ventricular tachycardia, ventricular fibrillation, ventricular flutter, torsade de pointe), • 8. Frequency of syncope, • 9. Frequency of seizures, • 10. Frequency of stroke, • 11. Frequency of LVEF≤45 as measured by echocardiography, • 12. QT and QTcF intervals over time. Efficacy and Pharmacodynamics Include: • 1. Post-exercise, post-Valsalva, and resting LVOT gradient over time, • 2. NYHA functional class over time, • 3. KCCQ scores over time, • 4. NT-proBNP over time, • 5. Frequency of septal reduction therapy."}, "[2]": {"test_system": "Yucatan mini-pigs with a heterozygous MYH7 R403Q mutation", "assay": "Chronic MYK-581 in mini-pig genetic model of non-obstructed HCM (cMR imaging, invasive hemodynamics, dobutamine challenge)", "type": "in vivo", "details": "corrected for plasma protein binding and potency differences MYK-581 vs mavacamten", "method": "The mini-pigs were treated for at least 12 weeks and were evaluated as shown in Schematic 1 below. […] After ˜14 weeks of treatment, all pigs underwent in vivo cMR imaging for the assessment of LV function and geometry, as well as of myocardial composition via of Late Gadolinium Enhancement (LGE) and T1 mapping techniques including extracellular volume (ECV) assessments. In addition, a subset of animals (MYK: n=6, CTRL: n=5) also underwent terminal invasive hemodynamics assessments, including cardiac output (CO, via thermodilution), load-independent systolic/diastolic function (via LV pressure-volume relationships), and β-adrenergic (β-AR) cardiac reserve (via dobutamine at 5 ug/kg/min IV).\nThe mini-pig model can be obtained following the method disclosed in a presentation entitled “A Minipig Genetic Model of Hypertrophic Cardiomyopathy Uncovers the Pathophysiological Mechanisms of Disease Evolution”, by E. Green et al., at University of Iowa, Carver College of Medicine."}}, "note": "Several values for one entry are separate records, joined by “and”; a condition that tells them apart may be missing. Equal entries are not always repeated.", "data": [{"smiles": "CC(C)n1c(=O)cc(N[C@@H](C)c2ccccc2)[nH]c1=O", "note": "[mavacamten, (S)-3-Isopropyl-6-((1-phenylethyl)amino)pyrimidine-2, 4(1H,3H)-dione]", "values": [{"measurement": "cardiac-related adverse events attributed to study drug", "setting": "[1]; 48-week period", "value": "no cardiac-related adverse events (AEs) attributed to study drug"}, {"measurement": "E/e′ lateral, mean", "setting": "[1]; Change from Baseline to Week 48", "value": "−3.4"}, {"measurement": "E/e′ lateral, mean", "setting": "[1]; Week 12", "value": 9.8}, {"measurement": "IVS (interventricular septal thickness), mean", "setting": "[1]; Week 12", "value": 16.0, "unit": "mm"}, {"measurement": "IVS (interventricular septal thickness), mean", "setting": "[1]; Week 12, listed as Mavacamten", "value": "15.9 ± 2.7", "unit": "mm"}, {"measurement": "E/e′ lateral, mean", "setting": "[1]; Week 24", "value": 10.2}, {"measurement": "IVS (interventricular septal thickness), mean", "setting": "[1]; Week 24", "value": 15.8, "unit": "mm"}, {"measurement": "IVS (interventricular septal thickness), mean", "setting": "[1]; Week 24, listed as Mavacamten", "value": "15.8 ± 2.7", "unit": "mm"}, {"measurement": "E/e′ lateral, mean", "setting": "[1]; Week 36", "value": 8.5}, {"measurement": "IVS (interventricular septal thickness), mean", "setting": "[1]; Week 36", "value": 15.4, "unit": "mm"}, {"measurement": "IVS (interventricular septal thickness), mean", "setting": "[1]; Week 36, listed as Mavacamten", "value": "15.4 ± 2.7", "unit": "mm"}, {"measurement": "E/e′ lateral, mean", "setting": "[1]; Week 48", "value": 9.1}, {"measurement": "IVS (interventricular septal thickness), mean", "setting": "[1]; Week 48", "value": "15 mm and 15.3 mm"}, {"measurement": "IVS (interventricular septal thickness), mean change from baseline", "setting": "[1]; Week 48", "value": "−1.5", "unit": "mm"}, {"measurement": "LVEF, mean change from baseline", "setting": "[1]; Week 48", "value": "−1.8", "unit": "%"}, {"measurement": "NT-proBNP, median", "setting": "[1]; Week 48", "value": 136.5, "unit": "pg/mL"}, {"measurement": "patients who achieved a post-exercise LVOT gradient <30 mm Hg", "setting": "[1]; Week 48", "value": "Five"}, {"measurement": "IVS (interventricular septal thickness), mean", "setting": "[1]; Week 48, listed as Mavacamten", "value": "15.5 ± 2.0", "unit": "mm"}, {"measurement": "IVS (interventricular septal thickness), mean change from baseline", "setting": "[1]; Week 48, listed as Mavacamten", "value": "−1.2 mm and −1.2 ± 2.3 mm"}, {"measurement": "median NT-proBNP, change from baseline", "setting": "[1]; Week 60", "value": -481, "unit": "pg/mL"}, {"measurement": "LVEF maintained", "setting": "[1]; all patients at all timepoints", "value": "above 50%"}, {"measurement": "AEs considered potentially related to study drug", "setting": "[1]; in 3 subjects, 7 mild, 1 moderate", "value": 8}, {"measurement": "equivalent human plasma concentrations", "setting": "[2]", "value": "50 to 250", "unit": "ng/mL"}]}]}
